Results on 2 compounds are retold here after patent US20170216360A1, “METHODS AND COMPOSITIONS FOR IMPROVING HOMING OF CELLS INCLUDING MESENCHYMAL STEM CELLS” (SANOFI, priority 2014, published 2017).

Test [1] relates to CD11a surface expression on huMSCs. Put plainly: Medium throughput screen: CD11a surface expression on MSCs, PE-CY5 anti-CD11a antibody, laser-scanning fluorescence microplate cytometer. It counts as cell-based, human. As to conditions: for EC50: read-out: Cell Surface Marker ED 50 (M) Molar Concentration of Compound for CD11a Expression. Details: key to Cell surface ligand CD11a (induction of expression): NA = negative activity result; A = positive activity result. As to the method: An in vitro screen was performed for compounds that induce surface expression on huMSCs of the marker CD11a (LFA-1). This screen may be considered a medium throughput screen. Certain compounds that induce the increase of this surface marker were then selected for testing in an in vitro firm adhesion assay and/or in vivo systemic administration in an animal model of inflammation. The surface expression screen involved fluorophore-conjugated antibodies to the respective markers. Following pretreatment with the test compounds, samples of cells were incubated with the labeled antibodies for detection of surface marker expression and change relative to a reference level of untreated cells or negative control samples or values. Cells were pretreated with a concentration (3 μM) of each small molecule compound for 24 hours, followed by incubation with a fluorophore-conjugated anti-marker antibody to detect expression on MSC surface. Surface expression levels of marker ligands were then evaluated by laser-scanning fluorescence microplate cytometer. […] Cell viability in response to compounds was also tested to assess whether molecules have toxicity after 24 hours of pretreatment. Testing was performed on two different huMSC sources representing cells from different donors.
Further details of the screening approach are provided as follows. A unique single batch of bone marrow-derived MSC cells was prepared for the entire screening campaign by cell amplification using CellStack flasks and freezing in separate vials at passage P5. […] For each run, vials were thawed and cells directly seeded on 384-well plates at 3,000 cells per well in MSCGM medium. Following an overnight incubation, cells were treated with the indicated concentrations of compounds for 24 hours. Cells were washed in PBS, 3% BSA and incubated for one hour with PE-CY5-conjugated anti-CD11a monoclonal antibody (clone HI111). Expression of CD11a at the cell surface was detected using the Acumen Explorer, a laser-scanning fluorescence microplate cytometer after two PBS washings. HL-60 cells seeded at 10,000 cells per well and treated with 100 nM phorbol 12-myristate 13-acetate (PMA) for 24 h to induce cell adhesion were used as a positive control in each 384-well plate. Positive compounds were counter-screened for their auto-fluorescence by measuring the signal in the absence of antibody.
A single batch of bone marrow-derived MSC was prepared for the entire screening campaign by cell amplification using CellStack flasks and freezing in separate vials at passage P5. […] For each run, vials were thawed and cells directly seeded on 384-well plates at 3,000 cells per well in MSCGM medium. Following an overnight incubation, cells were pretreated with a low (0.1 μM) and high (3 μM) concentration of the compounds for 24 h. 9,000 cpds were tested in 112 assay plates, each 384-well plate contained 320 cpds (from column 5 to 24), one column for Max (Column2, HL60 cells) and one column for Min (Column4, MSC cells). Cells were washed in PBS, 3% BSA and incubated for one hour with PE-CY5-conjugated anti-CD11a monoclonal Ab (BD Biosciences). Expression of CD11a at the cell surface was detected after two PBS washes using the Acumen Explorer equipment, a laser-scanning fluorescence microplate cytometer. HL-60 cells (seeded at 10,000 cells per well and treated with 100 nM phorbol 12-myristate 13-acetate (PMA) for 24 h to induce cell adhesion) were used as a positive control in each 384-well plate. Positive compounds were counter-screened for their auto-fluorescence by measuring the signal in the absence of Ab. Shown in FIG. 4 is the global screening data. Using the Max, Min columns, we have calculated Max/Min ratio generated with CD11a Ab for each assay plate (signal/background ration in green columns was calculated for each of the 112 assay plates). […]

For test [2], the system named is MSC firm adhesion to E-selectin-coated surface. Put plainly: E-selectin firm adhesion assay under shear flow, with antibody blocking. As to conditions: 3 μM for 24 h. It counts as cell-based, human. As to the method:
Cell adhesion experiments were performed using Bioflux1000 (FluxionBio), allowing accurate control over shear flow. A special 48-well plate was used, in which a microfluidic channel (350 μm×70 μm) connects each pair of adjacent wells (termed inlet and outlet wells). The plate was placed under vacuum and the channels were coated from the inlet with recombinant human E-selectin (5 μg/mL) or ICAM-1 (5 μg/mL) and incubated at 37° C. for 1 h. Prior to introducing the cells into the channel, a wash with PBS−/− from the outlet well was performed for 5 min. Compound-pretreated MSCs were introduced into the channel, followed by attachment period of 2 minutes (no flow applied during the attachment period). Attached cells were then subjected to increasing shear flow, ranging from 0.25 dynes/cm^2 for up to 10 dynes/cm^2. Images were acquired using the Montage software and cell adhesion to the coated channels following subjection to shear flow was examined. See also disclosure elsewhere herein.
Pre-confluent MSCs were incubated for 24 hours with the indicated small molecules (3 μM). MSCs were than detached, washed and incubated for 30 minutes with an antibody reagent. The following antibodies are used: anti-human CD11a (clone: HI111), anti-human CD90 (clone: MAB2067), mouse anti-human CD11a (clone: TS1/22), and mouse IgG1 isotype control. Cells were then introduced into the channel and given 2 minutes to adhere before being subjected to increasing shear flow for a firm adhesion assay on a microfluidic channel coated with E-selectin or ICAM-1.
1. Obtain preferred channel coating (protein/cell monolayer). 2. Prepare cell suspension (same concentrations detailed above for different cell types). 3. Add 50 μl of cell suspension to outlet well. 4. Introduce cells into channel by applying shear force of 2 dynes/cm^2 (cells should be observed within 10-15 sec flowing from outlet to inlet). 5. Once cells are observed in the channel, stop the flow and allow the introduced cells to sit for different time periods ranging from 30 seconds to 5 minutes. 6. Following this settling period, apply shear force starting from 0.5 dynes/cm^2 up to 10 dynes/cm^2 and acquire videos using stream acquisition. 7. Cell quantification is then performed using the Montage software—percentage of cells adhered, rolled or washed away after applying shear flow should be quantified.

Structures can show the parent of a compound that is named as a salt. Where two headings read alike, the source gives them in different places.

For `CCc1c2c(nc3ccc(OC(=O)N4CCC(N5CCCCC5)CC4)cc13)-c1cc3c(c(=O)n1C2)COC(=O)[C@]3(O)CC` [Compound 1927, reference compound], the “CD11a surface expression on MSCs, result in words” value in test [1] (24 h pretreatment) is “did not increase”. For the same compound, the EC50 in test [1] (Homo sapiens, pretreatment of huMSCs) is > 3e-05 M. For the same compound, the “Effect of antibody blocking of CD11a or CD90 on firm adhesion” value in test [2] (E-selectin) is given as “no effect”. The “MSC firm adhesion to E-selectin-coated substrates, result in words” value in test [2] (vs vehicle-treated MSCs) is on record as “did not improve”.

Turning to `Cn1cc(C2=C(c3c4n(c5ccccc35)CCC(CN)C4)C(=O)NC2=O)c2ccccc21` (stereo not drawn) [Compound 1929, 3-(8-aminomethyl-6,7,8,9-tetrahydro-pyrido[1,2-a]indol-10-yl)-4-(1-methyl-1H-indol-3-yl)-pyrrole-2,5-dione hydrochloride], in test [1] (24 h pretreatment), the “CD11a surface expression on MSCs compared to HL-60 cells” value was “two-fold higher” and the “CD11a surface expression on MSCs, result in words” value is “significant increase”. Besides, the “Cell surface ligand CD11a (induction of expression)” value in test [1] (pretreatment of huMSCs) is listed as “A”. Also, the EC50 in test [1] (pretreatment of huMSCs, hydrochloride) was found to be 8e-07 M. Further, in test [2], the “Adhered cells on E-selectin-coated surface before CD11a blocking” value is listed as ~90% and the “Firm adhesion to E-selectin of pretreated MSC compared to control MSCs” value was 3 fold. Also, the “Adhered cells on E-selectin-coated surface following CD11a blocking” value in test [2] (CD11a blocking antibody 30 minutes) turned out to be 50%. In addition, the “Effect of antibody blocking of CD90 on firm adhesion” value in test [2] (E-selectin) was “no effect”.
